Laboratory results as given in paper PMC9154810, “Selective inhibition of carbonic anhydrase IX by sulphonylated 1,2,3-triazole incorporated benzenesulphonamides capable of inducing apoptosis” (Journal of Enzyme Inhibition and Medicinal Chemistry, 2022).
Read-outs that look alike come from different tables or passages of the source.

Columns and labels:
[1] = MTT assay, cell viability; assay type: cell-based; conditions: goat (Capra hircus), primary goat testicular cells, mean ± SEM, read-out: percent cell viability
Experimental: (§1) Goat (Capra hircus) testicular tissues were procured from slaughterhouses of Chandigarh (30°43′ N, 76°12′ E) and around Kurukshetra (29°6′ N, 76°50′ E) in 0.9% normal saline at 4 °C. The testicular cells/tissues were cultured in vitro in media-TCM199 and exposed to 10 µM concentration of given compounds for 6 h in a CO2 incubator with 5% CO2 and 95% humidity at 38 °C temperature.[22]^,[23]
Testicular cells were cultured in 96-well plates. Wells for blank control were without any cells and contained MTT [3-(4,5-dimethylthiazol-2-yl)-2,5-diphenyl-tetrazolium-bromide)], culture medium, and DMSO. The remaining wells were seeded with testicular cells, which were treated with given compounds at 10 µM concentration for 6 h. Post treatment, 10 µL of MTT stock solution was added to each well, and the reaction mixture was incubated for 2 h. After that 200 µL of DMSO was added in each well, followed by shaking for 10 min. Absorbance of reaction mixture was taken at 470 nm.

testicular cells = assay: EB/AO differential staining, apoptosis detection and quantification; assay type: cell-based, Goat (Capra hircus); conditions: 10 µM, 6 h, mean ± SEM; control 7.33 ± 0.33
Experimental: as §1
Ethidium bromide and acridine orange (EB/AO) staining was used to determine the cyto-genotoxic nature of given compounds in testicular cells.[25] Briefly, the testicular cell suspension prepared from the treated testicular tissue was mixed with equal volume of EB/AO differential stain on a glass slide and covered with a coverslip. Observation and quantification of apoptotic cells were done with fluorescence microscope (Olympus, Japan) using filters of 500–525 nm. Cells appearing bright green were marked as normal healthy cells, while cells displaying orange-red fluorescence were marked as apoptotic.

hCA I = hCA I (Homo sapiens, UniProt P00915); assay: stopped-flow CO2 hydrase assay, hCA I
Chain of hCA I (P00915 whole entry): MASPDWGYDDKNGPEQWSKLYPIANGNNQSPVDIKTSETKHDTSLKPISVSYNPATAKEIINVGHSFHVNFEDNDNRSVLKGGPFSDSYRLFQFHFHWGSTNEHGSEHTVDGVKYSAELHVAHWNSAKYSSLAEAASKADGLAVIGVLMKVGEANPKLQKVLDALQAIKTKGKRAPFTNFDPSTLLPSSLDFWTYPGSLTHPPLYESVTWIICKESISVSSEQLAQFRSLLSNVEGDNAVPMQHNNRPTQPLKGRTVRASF
Source text: (§2) An Sx.18Mv-R Applied Photophysics (Oxford, UK) stopped-flow instrument was used to assay the catalytic activity of various CA isozymes for CO2 hydration reaction.[21]

hCA II = hCA II (Homo sapiens, UniProt P00918); assay: stopped-flow CO2 hydrase assay, hCA II
Source text: as §2

hCA IV = hCA IV (Homo sapiens, UniProt P22748); assay: stopped-flow CO2 hydrase assay, hCA IV
Chain of hCA IV (P22748 19-312): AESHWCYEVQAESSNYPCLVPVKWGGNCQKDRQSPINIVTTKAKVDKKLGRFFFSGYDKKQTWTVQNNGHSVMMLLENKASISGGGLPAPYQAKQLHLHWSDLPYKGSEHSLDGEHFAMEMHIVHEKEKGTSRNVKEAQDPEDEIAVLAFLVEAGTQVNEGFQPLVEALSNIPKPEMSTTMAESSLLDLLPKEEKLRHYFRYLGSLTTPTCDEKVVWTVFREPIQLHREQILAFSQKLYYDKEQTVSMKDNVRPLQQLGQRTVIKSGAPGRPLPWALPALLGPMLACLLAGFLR
Source text: as §2

hCA IX = hCA IX (Homo sapiens, UniProt Q16790); assay: stopped-flow CO2 hydrase assay, hCA IX; conditions: for Selectivity index I/IX: ratio KI hCA I / KI hCA IX; for Selectivity index II/IX: ratio KI hCA II / KI hCA IX
Source text: as §2

[2] = mean from three assays, stopped-flow technique, errors ± 5–10%

Structure (SMILES)	viability at 6 h, 10 µM [1]	percent apoptosis (testicular cells)	melting point	Ki (hCA I)	Ki (hCA I; [2])	Ki (hCA II)	Ki (hCA IV)	Ki (hCA IX)	selectivity for hCA IX over hCA I (hCA IX)	Selectivity index I/IX (hCA IX)	Selectivity index II/IX (hCA IX)
COc1ccc(-c2c(S(=O)(=O)c3ccccc3)nnn2-c2cccc(S(N)(=O)=O)c2)cc1Br [Compound 10h, 3-(5-(3-bromo-4-methoxyphenyl)-4-(phenylsulphonyl)-1H-1,2,3-triazol-1-yl)benzenesulphonamide]	46.7 ± 4.8%	29.33 ± 1.45%	231 to 233 °C	8030 nM	8030 nM	649 nM	6050 nM	22.8 nM	more than 100 fold	352.32	28.45
NS(=O)(=O)c1cccc(-n2nnc(S(=O)(=O)c3ccccc3)c2-c2ccc(Cl)cc2)c1 [Compound 10d, 3-(5-(4-chlorophenyl)-4-(phenylsulphonyl)-1H-1,2,3-triazol-1-yl)benzenesulphonamide]	32 ± 6.92%	35.00 ± 1.15%	123 to 125 °C		696 nM	58.4 nM	91.8 nM	16.4 nM		42.42	3.56
NS(=O)(=O)c1ccc(-n2nnc(S(=O)(=O)c3ccccc3)c2-c2ccccc2)cc1 [Compound 9a, 4-(5-phenyl-4-(phenylsulphonyl)-1H-1,2,3-triazol-1-yl)benzenesulphonamide]			214 to 216 °C		97.9 nM	9.6 nM	149 nM	21.5 nM		4.55	0.45
NS(=O)(=O)c1ccc(-n2nnc(S(=O)(=O)c3ccccc3)c2-c2ccc(Br)cc2)cc1 [Compound 9e, 4-(5-(4-bromophenyl)-4-(phenylsulphonyl)-1H-1,2,3-triazol-1-yl)benzenesulphonamide]			198 to 200 °C		7840 nM	220 nM	801 nM	30.1 nM	more than 100 fold	260.40	7.32
NS(=O)(=O)c1cccc(-n2nnc(S(=O)(=O)c3ccccc3)c2-c2ccccc2)c1 [Compound 10a, 3-(5-phenyl-4-(phenylsulphonyl)-1H-1,2,3-triazol-1-yl)benzenesulphonamide]			172 to 174 °C		607 nM	161 nM	78.6 nM	26 nM		23.35	6.20
